Literature values as cited in patent US8524198B2, “Xylitol dental maintenance system” (priority 2003, dated 2013).

Legend:
[1] = 976 children aged 6-12 years, 2 years; for 2-year DMFS increment: partial substitution of sucrose by xylitol (X group) vs systemic fluoride (F group)
[2] = 3-year field study; partial substitution of sucrose by xylitol (X group)
[3] = tested on: oral microorganisms; conditions: pure cultures of oral microorganisms in vitro
[4] = tested on: dental plaque; conditions: dental plaque in vivo

Row | Compound | ratio (RS) between caries incidence and the tooth surface population at risk [1] | 2-year DMFS increment [1] | oral hygiene conditions, final vs base-line [2] | metabolized into acids [3] | metabolized into acids [4]
1 | F [fluoride] | 5.5 | 4.8 |  |  | 
2 | OC[C@@H](O)[C@H](O)[C@@H](O)CO [xylitol] | 4.5 | 3.8 | definite improvement | not metabolized into acids | not metabolized into acids
